Where a SMILES comes first, the peptide text is derived from it.
Key:
[1] = test system: human H1N1 influenza A virus A/Puerto Rico/8/1934 (PR8); conditions: human virus A/Puerto Rico/8/1934 (PR8)
PR8 virus = test system: PR8 virus; design: species or system influenza A virus
[2] = target: H1 HA of A/Puerto Rico/8/1934 H1N1 influenza virus (influenza A virus A/Puerto Rico/8/1934 H1N1) (UniProt P03452); assay: cell-based or functional assay

**Q.** For `CC[C@H](C)[C@H](NC(=O)CNC(=O)[C@H](CC(C)C)NC(=O)CNC(=O)[C@H](C)NC(=O)CNC(=O)[C@H](CCCCN)NC(=O)[C@H](C)NC(=O)[C@@H](NC(=O)CNC(=O)[C@@H](NC(=O)[C@H](C)NC(=O)[C@@H](NC(=O)[C@H](CC(=O)O)NC(=O)[C@H](CCCCN)NC(=O)[C@H](CC(C)C)NC(=O)[C@H](CCCCN)NC(=O)[C@@H](NC(=O)[C@@H](NC(=O)[C@H](Cc1ccccc1)NC(=O)[C@@H](N)CO)C(C)C)[C@@H](C)O)C(C)C)[C@@H](C)CC)C(C)C)C(=O)N[C@@H](CC(C)C)C(=O)N[C@@H](CCCCN)C(=O)N[C@H](C(=O)N[C@@H](CC(C)C)C(=O)N[C@H](C(=O)N[C@@H](CS)C(=O)N[C@@H](CCCCN)C(=O)N[C@@H](CC(C)C)C(=O)N[C@@H](CC(=O)O)C(=O)N[C@@H](CC(N)=O)C(=O)N[C@@H](CO)C(=O)N[C@@H](CS)C(=O)N[C@@H](C)C(=O)O)[C@@H](C)O)[C@@H](C)O` [Peptide 28] (H-SFVTKLKDVAIGVAKGAGLGILKTLTCKLDNSCA-OH), which hemolytic activity (human erythrocytes; at 10 μM) is on record?
**A.** hemolytic activity

**Q.** What does the source list for `CC[C@H](C)[C@H](N)C(=O)N1CCC[C@H]1C(=O)N[C@@H](CC(C)C)C(=O)N[C@@H](CCCNC(=N)N)C(=O)NCC(=O)N[C@@H](C)C(=O)N[C@@H](Cc1ccccc1)C(=O)N[C@H](C(=O)N[C@@H](CC(N)=O)C(=O)NCC(=O)N[C@@H](CCCNC(=N)N)C(=O)N[C@@H](Cc1c[nH]c2ccccc12)C(=O)N[C@@H](CC(=O)O)C(=O)N[C@@H](CO)C(=O)N[C@@H](CCC(N)=O)C(=O)N[C@@H](CS)C(=O)N[C@@H](Cc1c[nH]cn1)C(=O)N[C@@H](CCCNC(=N)N)C(=O)N[C@@H](Cc1ccccc1)C(=O)N[C@@H](CO)C(=O)N[C@@H](CC(N)=O)C(=O)NCC(=O)N[C@@H](C)C(=O)N[C@H](C(=O)N[C@@H](C)C(=O)N[C@@H](CS)C(=O)N[C@@H](C)C(=O)O)[C@@H](C)CC)[C@@H](C)CC` [Urumin] (H-IPLRGAFINGRWDSQCHRFSNGAIACA-OH)?
**A.** concentration reaching a 20% level of toxicity (human erythrocytes): 1430 µM; toxicity to human erythrocytes (hemolysis) (human erythrocytes): no toxicity; IC50 [1]: 3.8 µM

**Q.** How did the “integrity of virus particles by electron microscopy” value (PR8 virus) turn out when OVA257-264 peptide [OVA peptide] was run?
**A.** appear intact

**Q.** Urumin (peptide) was tested. Which IC50, plaque assay against PR8 virus [2] did it give?
**A.** 3.8 µM

From patent publication US20190367567A1 (priority 2016, published 2019)
